{"source": "patent US12065442B2", "about": "“Tropomyosin receptor kinase (TRK) degradation compounds and methods of use” (Cullgen (Shanghai), Inc., priority 2018, dated 2024)", "data": [{"system": "KM12 cells", "experiment": "Cell viability assay (CellTiter-Glo) in KM12 cells", "assay_type": "cell-based", "settings": "Homo sapiens, 72 h; Table 2; KM12 cell viability, CellTiter-Glo, 3 days; read-out: IC50", "units": {"IC50": "nM"}, "values": [{"smiles": "Cc1ncsc1-c1ccc(CNC(=O)[C@@H]2C[C@@H](O)CN2C(=O)[C@@H](NC(=O)CCCCCCCC(=O)N2CCN(c3ccc(C(=O)Nc4n[nH]c5ccc(Cc6cc(F)cc(F)c6)cc45)c(NC4CCOCC4)c3)CC2)C(C)(C)C)cc1", "note": "[CPD-037, (2S,4R)-1-((S)-2-(9-(4-(4-((5-(3,5-Difluorobenzyl)-1H-indazol-3-yl)carbamoyl)-3-((tetrahydro-2H-pyran-4-yl)amino)phenyl)piperazin-1-yl)-9-oxononanamido)-3,3-dimethylbutanoyl)-4-hydroxy-N-(4-(4-methylthiazol-5-yl)benzyl)pyrrolidine-2-carboxamide]", "IC50": 150}, {"smiles": "O=C1CCC(N2C(=O)c3cccc(NCCOCCOCCOCCOCCC(=O)N4CCN(c5ccc(C(=O)Nc6n[nH]c7ccc(Cc8cc(F)cc(F)c8)cc67)c(NC6CCOCC6)c5)CC4)c3C2=O)C(=O)N1", "note": "(stereo not shown) [CPD-031, N-(5-(3,5-Difluorobenzyl)-1H-indazol-3-yl)-4-(4-(1-((2-(2,6-dioxopiperidin-3-yl)-1,3-dioxoisoindolin-4-yl)amino)-3,6,9,12-tetraoxapentadecan-15-oyl)piperazin-1-yl)-2-((tetrahydro-2H-pyran-4-yl)amino)benzamide]", "IC50": 68.5}, {"smiles": "Cc1ncsc1-c1ccc(CNC(=O)[C@@H]2C[C@@H](O)CN2C(=O)[C@@H](NC(=O)CCOCCOCCOCCC(=O)N2CCN(c3ccc(C(=O)Nc4n[nH]c5ccc(Cc6cc(F)cc(F)c6)cc45)c(NC4CCOCC4)c3)CC2)C(C)(C)C)cc1", "note": "[CPD-039, (2S,4R)-1-((S)-2-(tert-butyl)-16-(4-(4-((5-(3,5-Difluorobenzyl)-1H-indazol-3-yl)carbamoyl)-3-((tetrahydro-2H-pyran-4-yl)amino)phenyl)piperazin-1-yl)-4,16-dioxo-7,10,13-trioxa-3-azahexadecanoyl)-4-hydroxy-N-(4-(4-methylthiazol-5-yl)benzyl)pyrrolidine-2-carboxamide]", "IC50": 222}, {"smiles": "O=C1CCC(N2C(=O)c3cccc(NCCOCCOCCC(=O)N4CCN(c5ccc(C(=O)Nc6n[nH]c7ccc(Cc8cc(F)cc(F)c8)cc67)c(NC6CCOCC6)c5)CC4)c3C2=O)C(=O)N1", "note": "(stereo not shown) [CPD-032, N-(5-(3,5-Difluorobenzyl)-1H-indazol-3-yl)-4-(4-(3-(2-(2-((2-(2,6-dioxopiperidin-3-yl)-1,3-dioxoisoindolin-4-yl)amino)ethoxy)ethoxy)propanoyl)piperazin-1-yl)-2-((tetrahydro-2H-pyran-4-yl)amino)benzamide]", "IC50": 5.4}]}, {"system": "KM12 cells", "experiment": "Cell viability assay (CellTiter-Glo) in KM12 cells", "assay_type": "cell-based", "settings": "Homo sapiens, 72 h; Table 3; KM12 cell viability, CellTiter-Glo, 3 days; read-out: IC50", "units": {"IC50": "nM"}, "values": [{"smiles": "O=C1CCC(N2C(=O)c3ccc(NCCC4CCN(c5cccc(-c6cnc7ccc(N8CCC[C@@H]8c8cccc(F)c8)nn67)n5)CC4)cc3C2=O)C(=O)N1", "note": "(stereo partly drawn) [TR-180, 2-(2,6-Dioxopiperidin-3-yl)-5-((2-(1-(6-(6-((R)-2-(3-fluorophenyl)pyrrolidin-1-yl)imidazo[1,2-b]pyridazin-3-yl)pyridin-2-yl)piperidin-4-yl)ethyl)amino)isoindoline-1,3-dione]", "IC50": 33.8}, {"smiles": "O=C1CCC(N2C(=O)c3ccc(NCCOCCOCCC(=O)N4CCN(c5cccc(-c6cnc7ccc(N8CCC[C@@H]8c8cccc(F)c8)nn67)n5)CC4)cc3C2=O)C(=O)N1", "note": "(stereo partly drawn) [TR-113, 2-(2,6-Dioxopiperidin-3-yl)-5-((2-(2-(3-(4-(6-(6-((R)-2-(3-fluorophenyl)pyrrolidin-1-yl)imidazo[1,2-b]pyridazin-3-yl)pyridin-2-yl)piperazin-1-yl)-3-oxopropoxy)ethoxy)ethyl)amino)isoindoline-1,3-dione]", "IC50": 1.3}, {"smiles": "O=C1CCC(N2C(=O)c3ccc(NCCOCCOCCOCCOCCC(=O)N4CCN(c5cccc(-c6cnc7ccc(N8CCC[C@@H]8c8cccc(F)c8)nn67)n5)CC4)cc3C2=O)C(=O)N1", "note": "(stereo partly drawn) [TR-120, 2-(2,6-Dioxopiperidin-3-yl)-5-((15-(4-(6-(6-((R)-2-(3-fluorophenyl)pyrrolidin-1-yl)imidazo[1,2-b]pyridazin-3-yl)pyridin-2-yl)piperazin-1-yl)-15-oxo-3,6,9,12-tetraoxapentadecyl)amino)isoindoline-1,3-dione]", "IC50": 10}, {"smiles": "O=C(CN1CCN(c2cccc(-c3cnc4ccc(N5CCC[C@@H]5c5cccc(F)c5)nn34)n2)CC1)NCCOCCOCCNc1ccc2c(c1)C(=O)N(C1CCC(=O)NC1=O)C2=O", "note": "(stereo partly drawn) [TR-134, N-(2-(2-(2-((2-(2,6-dioxopiperidin-3-yl)-1,3-dioxoisoindolin-5-yl)amino)ethoxy)ethoxy)ethyl)-2-(4-(6-(6-((R)-2-(3-fluorophenyl)pyrrolidin-1-yl)imidazo[1,2-b]pyridazin-3-yl)pyridin-2-yl)piperazin-1-yl)acetamide]", "IC50": 5.6}, {"smiles": "O=C1CCC(N2Cc3ccc(C#CCN4CCN(c5cccc(-c6cnc7ccc(N8CCC[C@@H]8c8cccc(F)c8)nn67)n5)CC4)cc3C2=O)C(=O)N1", "note": "(stereo partly drawn) [TR-187, 3-(6-(3-(4-(6-(6-((R)-2-(3-fluorophenyl)pyrrolidin-1-yl)imidazo[1,2-b]pyridazin-3-yl)pyridin-2-yl)piperazin-1-yl)prop-1-yn-1-yl)-1-oxoisoindolin-2-yl)piperidine-2,6-dione]", "IC50": 18.6}, {"smiles": "O=C1CCC(N2Cc3cc(NCC(=O)N4CCN(c5cccc(-c6cnc7ccc(N8CCC[C@@H]8c8cccc(F)c8)nn67)n5)CC4)ccc3C2=O)C(=O)N1", "note": "(stereo partly drawn) [TR-190, 3-(5-((2-(4-(6-(6-((R)-2-(3-fluorophenyl)pyrrolidin-1-yl)imidazo[1,2-b]pyridazin-3-yl)pyridin-2-yl)piperazin-1-yl)-2-oxoethyl)amino)-1-oxoisoindolin-2-yl)piperidine-2,6-dione]", "IC50": 3.6}, {"smiles": "O=C(CN1CCN(c2cccc(-c3cnc4ccc(N5CCC[C@@H]5c5cccc(F)c5)nn34)n2)CC1)NCCOCCOCCNc1cccc2c1C(=O)N(C1CCC(=O)NC1=O)C2=O", "note": "(stereo partly drawn) [TR-105, N-(2-(2-(2-((2-(2,6-dioxopiperidin-3-yl)-1,3-dioxoisoindolin-4-yl)amino)ethoxy)ethoxy)ethyl)-2-(4-(6-(6-((R)-2-(3-fluorophenyl)pyrrolidin-1-yl)imidazo[1,2-b]pyridazin-3-yl)pyridin-2-yl)piperazin-1-yl)acetamide]", "IC50": 10.1}, {"smiles": "O=C(CN1CCN(c2ccc(C(=O)Nc3n[nH]c4ccc(Cc5cc(F)cc(F)c5)cc34)c(NC3CCOCC3)c2)CC1)NCCOCCOCCNc1ccc2c(c1)C(=O)N(C1CCC(=O)NC1=O)C2=O", "note": "(stereo not shown) [TR-162, N-(5-(3,5-Difluorobenzyl)-1H-indazol-3-yl)-4-(4-(2-((2-(2-(2-((2-(2,6-dioxopiperidin-3-yl)-1,3-dioxoisoindolin-5-yl)amino)ethoxy)ethoxy)ethyl)amino)-2-oxoethyl)piperazin-1-yl)-2-((tetrahydro-2H-pyran-4-yl)amino)benzamide]", "IC50": 4.1}, {"smiles": "O=C1CCC(N2C(=O)c3ccc(NCC(=O)N4CCN(c5ccc(C(=O)Nc6n[nH]c7ccc(Cc8cc(F)cc(F)c8)cc67)c(NC6CCOCC6)c5)CC4)cc3C2=O)C(=O)N1", "note": "(stereo not shown) [TR-144, N-(5-(3,5-Difluorobenzyl)-1H-indazol-3-yl)-4-(4-((2-(2,6-dioxopiperidin-3-yl)-1,3-dioxoisoindolin-5-yl)glycyl)piperazin-1-yl)-2-((tetrahydro-2H-pyran-4-yl)amino)benzamide]", "IC50": 2.2}]}, {"system": "KM12 cells", "experiment": "Cell viability assay (CellTiter-Glo) in KM12 cells", "assay_type": "cell-based", "settings": "Homo sapiens, 72 h; Table 4; KM12 cell viability, CellTiter-Glo, 3 days; read-out: IC50", "units": {"IC50": "nM"}, "values": [{"smiles": "O=C1CCC(N2C[C@H](c3ccc(CN4CCN(c5cccc(-c6cnc7ccc(N8CCC[C@@H]8c8cccc(F)c8)nn67)n5)CC4)cc3)OC2=O)C(=O)N1", "note": "(stereo partly drawn) [TR-229, 3-((S)-5-(4-((4-(6-(6-((R)-2-(3-Fluorophenyl)pyrrolidin-1-yl)imidazo[1,2-b]pyridazin-3-yl)pyridin-2-yl)piperazin-1-yl)methyl)phenyl)-2-oxooxazolidin-3-yl)piperidine-2,6-dione]", "IC50": 50.8}, {"smiles": "O=C1CCC(N2Cc3cc(NCC4CCN(c5cccc(-c6cnc7ccc(N8CCC[C@@H]8c8cccc(F)c8)nn67)n5)CC4)ccc3C2=O)C(=O)N1", "note": "(stereo partly drawn) [TR-218, 3-(5-(((1-(6-(6-((R)-2-(3-Fluorophenyl)pyrrolidin-1-yl)imidazo[1,2-b]pyridazin-3-yl)pyridin-2-yl)piperidin-4-yl)methyl)amino)-1-oxoisoindolin-2-yl)piperidine-2,6-dione]", "IC50": 15.3}, {"smiles": "O=C1CCC(N2Cc3cc(N4CCN(c5cccc(-c6cnc7ccc(N8CCC[C@@H]8c8cccc(F)c8)nn67)n5)CC4)ccc3C2=O)C(=O)N1", "note": "(stereo partly drawn) [TR-207, 3-(5-(4-(6-(6-((R)-2-(3-Fluorophenyl)pyrrolidin-1-yl)imidazo[1,2-b]pyridazin-3-yl)pyridin-2-yl)piperazin-1-yl)-1-oxoisoindolin-2-yl)piperidine-2,6-dione]", "IC50": 31.3}, {"smiles": "Cn1c(=O)n(C2CCC(=O)NC2=O)c2ccc(NCCN3CCN(c4cccc(-c5cnc6ccc(N7CCC[C@@H]7c7cccc(F)c7)nn56)n4)CC3)cc21", "note": "(stereo partly drawn) [TR-220, 3-(5-((2-(4-(6-(6-((R)-2-(3-Fluorophenyl)pyrrolidin-1-yl)imidazo[1,2-b]pyridazin-3-yl)pyridin-2-yl)piperazin-1-yl)ethyl)amino)-3-methyl-2-oxo-2,3-dihydro-1H-benzo[d]imidazol-1-yl)piperidine-2,6-dione]", "IC50": 5.5}, {"smiles": "O=C1CCC(N2C(=O)c3ccc(N4CCC(CN5CCN(c6cccc(-c7cnc8ccc(N9CCC[C@@H]9c9cccc(F)c9)nn78)n6)CC5)CC4)cc3C2=O)C(=O)N1", "note": "(stereo partly drawn) [TR-226, 2-(2,6-Dioxopiperidin-3-yl)-5-(4-((4-(6-(6-((R)-2-(3-fluorophenyl)pyrrolidin-1-yl)imidazo[1,2-b]pyridazin-3-yl)pyridin-2-yl)piperazin-1-yl)methyl)piperidin-1-yl)isoindoline-1,3-dione]", "IC50": 13.8}, {"smiles": "O=C1CCC(N2C(=O)c3ccc(NC(=O)C4CN(c5cccc(-c6cnc7ccc(N8CCC[C@@H]8c8cccc(F)c8)nn67)n5)C4)cc3C2=O)C(=O)N1", "note": "(stereo partly drawn) [TR-209, N-(2-(2,6-Dioxopiperidin-3-yl)-1,3-dioxoisoindolin-5-yl)-1-(6-(6-((R)-2-(3-fluorophenyl)pyrrolidin-1-yl)imidazo[1,2-b]pyridazin-3-yl)pyridin-2-yl)azetidine-3-carboxamide]", "IC50": "> 500"}]}]}
